Patent US10934303B2, “Aryl ethene derivative and pharmaceutical composition containing same as active ingredient” (priority 2016, dated 2021)
Like-named read-outs stand apart in the source and are kept apart here.

Columns and labels:
ERRγ = format: cell-based
Description: AD293 was cultured in a 24-well plate for 24 hours, using a DMEM High glucose culture medium (Hyclone, USA) to which 0.5% FBS was added at a concentration of 9×10^4/well. The culture medium was replaced with a DMEM High glucose culture medium to which 10% FBS was added, treatment was performed with a mixture of a TransIT-LT1 transfection reagent (Mirus, USA) and pCMX-Gal4-ERRγ, pFR-luciferase reporter plasmid, pCMV-β-gal, and culturing was performed for 24 hours. Thereafter, a luciferase activity assay and a β-gal assay were performed, respectively, with a lysate obtained after treatment with the arylethene derivative of the present invention for 24 hours. All results were derived from three or more independent repetitive experiments.

CYP3A4 = CYP3A4 (Homo sapiens (Human), UniProt P08684); assay: Cytochrome P450 activity inhibition, CYP3A4; format: in vitro ADME; details: 10 μM, human liver microsomes, Midazolam substrate
Excerpt: (§1) 1) Cytochrome P450 (CYP450) Activity Inhibition Evaluation

[1] = target: GST-bound ER alpha ligand-binding domain (LBD) (Homo sapiens (Human), UniProt P03372); assay: biochemical; details: TR-FRET, beta-estradiol 4 nM as agonist; read-out: Binding Assay, IC50 ERα
Chain of GST-bound ER alpha ligand-binding domain (LBD) (P03372 whole entry, looked up, the tested form may be a part): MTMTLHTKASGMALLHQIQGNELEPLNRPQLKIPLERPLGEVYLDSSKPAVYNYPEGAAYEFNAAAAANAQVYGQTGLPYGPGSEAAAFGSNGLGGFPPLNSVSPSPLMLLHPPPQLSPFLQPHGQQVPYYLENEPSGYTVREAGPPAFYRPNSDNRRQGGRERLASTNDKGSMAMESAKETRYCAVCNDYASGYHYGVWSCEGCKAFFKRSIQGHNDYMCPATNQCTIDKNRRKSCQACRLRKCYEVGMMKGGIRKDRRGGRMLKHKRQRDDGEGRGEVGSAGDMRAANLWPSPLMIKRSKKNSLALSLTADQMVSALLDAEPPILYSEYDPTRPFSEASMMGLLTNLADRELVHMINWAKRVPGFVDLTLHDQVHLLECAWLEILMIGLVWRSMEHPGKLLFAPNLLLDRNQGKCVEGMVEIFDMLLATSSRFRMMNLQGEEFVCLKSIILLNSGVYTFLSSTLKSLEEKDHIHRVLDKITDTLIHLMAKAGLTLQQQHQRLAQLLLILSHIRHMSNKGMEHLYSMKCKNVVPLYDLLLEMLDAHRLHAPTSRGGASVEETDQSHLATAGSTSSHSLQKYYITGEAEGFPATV
Description: (§2) The arylethene derivative of the present invention was sequentially added to a 384 well plate from a concentration of 10 μM to a final concentration of two-fold dilution. […] After all reagents were added, a reaction was carried out with gentle shaking at 20° C. for 1 hour, and after the reaction, a binding activity was measured by a TR-FRET method.

CYP1A2 = CYP1A2 (Homo sapiens (Human), UniProt P05177); assay: Cytochrome P450 activity inhibition, CYP1A2; format: in vitro ADME; details: 10 μM, human liver microsomes, Phenacetin substrate
Chain of CYP1A2 (P05177 whole entry): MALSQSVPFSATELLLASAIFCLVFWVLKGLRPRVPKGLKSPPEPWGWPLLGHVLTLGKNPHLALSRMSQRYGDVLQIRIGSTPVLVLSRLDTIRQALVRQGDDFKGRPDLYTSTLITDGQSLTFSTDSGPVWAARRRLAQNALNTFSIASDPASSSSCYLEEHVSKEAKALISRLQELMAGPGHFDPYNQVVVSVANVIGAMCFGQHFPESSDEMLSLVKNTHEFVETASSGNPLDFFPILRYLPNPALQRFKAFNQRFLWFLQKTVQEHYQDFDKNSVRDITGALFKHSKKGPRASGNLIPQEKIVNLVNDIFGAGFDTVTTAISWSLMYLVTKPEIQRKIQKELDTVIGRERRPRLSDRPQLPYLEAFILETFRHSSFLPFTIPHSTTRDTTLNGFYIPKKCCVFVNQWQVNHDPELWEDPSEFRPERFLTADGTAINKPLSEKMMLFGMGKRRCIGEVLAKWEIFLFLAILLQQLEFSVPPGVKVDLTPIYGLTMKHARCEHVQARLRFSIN
Excerpt: as §1

CYP2C9 = CYP2C9 (Homo sapiens (Human), UniProt P11712); assay: Cytochrome P450 activity inhibition, CYP2C9; format: in vitro ADME; details: 10 μM, human liver microsomes, Diclofenac substrate
Chain of CYP2C9 (P11712 whole entry): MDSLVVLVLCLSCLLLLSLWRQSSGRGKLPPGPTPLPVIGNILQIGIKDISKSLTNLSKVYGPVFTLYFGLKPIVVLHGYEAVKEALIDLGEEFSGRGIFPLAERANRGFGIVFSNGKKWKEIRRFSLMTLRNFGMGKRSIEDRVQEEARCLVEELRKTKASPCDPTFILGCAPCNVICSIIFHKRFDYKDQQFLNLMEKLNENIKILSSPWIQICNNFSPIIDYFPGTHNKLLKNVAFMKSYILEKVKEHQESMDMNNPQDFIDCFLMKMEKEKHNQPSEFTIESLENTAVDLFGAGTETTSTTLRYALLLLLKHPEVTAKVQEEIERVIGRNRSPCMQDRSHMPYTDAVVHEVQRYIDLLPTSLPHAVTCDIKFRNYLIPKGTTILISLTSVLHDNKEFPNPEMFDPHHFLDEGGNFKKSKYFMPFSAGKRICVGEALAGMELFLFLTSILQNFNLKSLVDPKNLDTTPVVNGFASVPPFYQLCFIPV
Excerpt: as §1

GST-bound ERR alpha LBD = GST-bound ERR alpha LBD (Homo sapiens (Human), UniProt P11474); details: TR-FRET, PGC1a coactivator; read-out: Binding Assay, IC50 ERRα
Chain of GST-bound ERR alpha LBD (P11474 193-421): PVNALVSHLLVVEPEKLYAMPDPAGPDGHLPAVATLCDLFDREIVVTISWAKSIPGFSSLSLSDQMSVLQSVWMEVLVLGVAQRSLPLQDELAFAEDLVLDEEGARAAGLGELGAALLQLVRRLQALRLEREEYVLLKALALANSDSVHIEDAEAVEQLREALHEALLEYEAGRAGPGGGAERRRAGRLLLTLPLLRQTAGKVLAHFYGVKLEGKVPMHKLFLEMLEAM
Description: as §2

in vitro = in vitro ADME; set-up: Papp at 5 h: dose or concentration left out as unconfirmed; details: PBS pH 7.4, 25° C.; for Permeability Pampa: 5 hours; for Papp at 5 h: PAMPA, read-out: Permeability Pampa
Description: 3) Parallel Artificial Membrane Permeability Assay (PAMPA) Evaluation
PAMPA is a method which has been developed for testing cell membrane permeability of a material in a test tube, and has been performed using a lipid tri-layer PVDF membrane available from Corning Gentest (NY, US), the used reagents were all purchased from Sigma (MO, US). First, a test material is diluted in PBS (pH 7.4) to a final concentration of 10 mM, 300 mL of the solution is added to the bottom well of a 96-transwell equipped with a PVDF membrane, and 200 mL of PBS is added to the upper well. Then, a plate is reacted at 25° C. for 5 hours, 20 mL of the solution in each well is transferred to a new container, and 80 mL of acetonitrile containing an internal standard material (4 mM chloropropamide) is added thereto. A concentration of the material in the solution is analyzed using LC-MS/MS (ThermoFisher Scientific, MO, US), and the transmittance of the material is calculated according to the equation reported in the reference document.

CYP2D6 = CYP2D6 (Homo sapiens (Human), UniProt P10635); assay: Cytochrome P450 activity inhibition, CYP2D6; format: in vitro ADME; details: 10 μM, human liver microsomes, Dextromethorphan substrate
Chain of CYP2D6 (P10635 whole entry): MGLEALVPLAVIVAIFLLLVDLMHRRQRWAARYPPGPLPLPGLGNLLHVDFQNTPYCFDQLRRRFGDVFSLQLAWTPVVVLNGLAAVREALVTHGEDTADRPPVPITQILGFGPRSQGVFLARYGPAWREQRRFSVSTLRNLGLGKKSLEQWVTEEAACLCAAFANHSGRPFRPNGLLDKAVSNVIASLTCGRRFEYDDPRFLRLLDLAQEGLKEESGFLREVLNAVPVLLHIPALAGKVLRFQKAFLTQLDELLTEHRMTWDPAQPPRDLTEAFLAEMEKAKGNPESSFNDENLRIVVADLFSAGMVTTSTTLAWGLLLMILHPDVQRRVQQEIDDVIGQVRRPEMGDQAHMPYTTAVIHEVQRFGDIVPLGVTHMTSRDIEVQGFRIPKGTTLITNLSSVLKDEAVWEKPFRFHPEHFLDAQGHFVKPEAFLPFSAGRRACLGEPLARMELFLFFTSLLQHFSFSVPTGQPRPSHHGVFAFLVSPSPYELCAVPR
Excerpt: as §1

in vivo = format: in vivo; details: rat
Description: An oral administration group fasts the day before.
Blood of each animal is collected at 0 hour.
Into a tail vein of an intravenous administration group (IV), a drug is injected at a dose of 1 mg/kg (syringe).
To an oral administration group (PO), a drug is orally administered at a dose of 10 mg/kg (oral zondec)
After administration, blood of the intravenous administration group was collected through a jugular vein 8 times at 0.08, 0.25, 0.5, 1, 2, 4, 6, and 8 hours. One collected blood amount is 400 to 500 ul.
After administration, blood of the oral administration group was collected through a jugular vein 6 times at 0.25, 0.5, 1, 4, 6 and 8 hours. One collected blood amount is 400 to 500 ul.
Supernatant plasma is collected by a centrifuge.
The supernatant plasma was injected into a LC-MS/MS system and the drug is analyzed.

CYP2C19 = CYP2C19 (Homo sapiens (Human), UniProt P33261); assay: Cytochrome P450 activity inhibition, CYP2C19; format: in vitro ADME; details: 10 μM, human liver microsomes, S-mephenytoin substrate
Chain of CYP2C19 (P33261 whole entry): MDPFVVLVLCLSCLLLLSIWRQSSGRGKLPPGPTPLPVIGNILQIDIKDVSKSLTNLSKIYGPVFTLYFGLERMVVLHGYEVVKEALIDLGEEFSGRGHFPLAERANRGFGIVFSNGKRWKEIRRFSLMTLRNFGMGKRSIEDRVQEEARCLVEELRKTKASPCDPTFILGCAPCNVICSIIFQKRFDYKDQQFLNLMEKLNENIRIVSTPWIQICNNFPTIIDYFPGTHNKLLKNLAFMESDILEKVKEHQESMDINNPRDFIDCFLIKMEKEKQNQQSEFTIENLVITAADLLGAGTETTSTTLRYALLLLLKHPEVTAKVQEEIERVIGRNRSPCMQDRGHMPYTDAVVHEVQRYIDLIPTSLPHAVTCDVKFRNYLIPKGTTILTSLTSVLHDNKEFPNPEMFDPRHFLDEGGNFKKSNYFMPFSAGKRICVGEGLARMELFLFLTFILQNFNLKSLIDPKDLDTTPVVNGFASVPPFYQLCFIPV
Excerpt: as §1

[2] = target: GST-bound ERR gamma ligand-binding domain (LBD) (Homo sapiens (Human), UniProt P62508); assay: ERRγ binding assay (inverse agonist assay), TR-FRET
Chain of GST-bound ERR gamma ligand-binding domain (LBD) (P62508 233-457): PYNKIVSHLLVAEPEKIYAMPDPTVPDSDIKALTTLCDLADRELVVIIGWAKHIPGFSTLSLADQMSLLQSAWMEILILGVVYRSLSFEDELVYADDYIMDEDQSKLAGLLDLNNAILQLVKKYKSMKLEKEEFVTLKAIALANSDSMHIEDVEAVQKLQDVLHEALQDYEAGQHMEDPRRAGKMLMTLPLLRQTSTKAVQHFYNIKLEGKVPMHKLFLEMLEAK
Description: 1) ERRγ Binding Assay (Inverse Agonist Assay)
as §2

[3] = 1 μM, 30 minutes, 37° C., NADPH
[4] = 1 μM, 30 minutes, 37° C., NADPH; remark: listed apart in the source
[5] = 1 μM, 30 minutes, 37° C., NADPH; remark: listed apart in the source
Description: 2) Microsomal Stability Evaluation
(§3) Four liver microsomes (Human, Dog, Rat, Mouse 0.5 mg/ml) with a 0.1 M phosphate buffer solution (pH 7.4), and the arylethene derivative of the present invention were added to a concentration of 1 μM, culturing was performed at 37° C. for 5 minutes in advance, a NADPH regeneration system solution was added thereto, and culturing was performed at 37° C. for 30 minutes. Thereafter, in order to complete the reaction, an acetonitrile solution containing an internal standard material (chlorpropamide) was added thereto, centrifugation (14,000 rpm, 4° C.) was performed for 5 minutes, and a supernatant was injected into a LC-MS/MS system to analyze the substrate drug, thereby evaluating metabolism stability to the arylethene derivative of the present invention.

[6] = 1 μM, 30 minutes, 37° C., NADPH; remark: listed apart in the source
Description: 2) Microsomal Stability Evaluation
as §3

[7] = activity relative to reference compound GSK5182, 10 μM
[8] = TR-FRET, PGC1a coactivator, read-out: Binding Assay, IC50 ERRγ

Chain of CYP3A4 (P08684 whole entry): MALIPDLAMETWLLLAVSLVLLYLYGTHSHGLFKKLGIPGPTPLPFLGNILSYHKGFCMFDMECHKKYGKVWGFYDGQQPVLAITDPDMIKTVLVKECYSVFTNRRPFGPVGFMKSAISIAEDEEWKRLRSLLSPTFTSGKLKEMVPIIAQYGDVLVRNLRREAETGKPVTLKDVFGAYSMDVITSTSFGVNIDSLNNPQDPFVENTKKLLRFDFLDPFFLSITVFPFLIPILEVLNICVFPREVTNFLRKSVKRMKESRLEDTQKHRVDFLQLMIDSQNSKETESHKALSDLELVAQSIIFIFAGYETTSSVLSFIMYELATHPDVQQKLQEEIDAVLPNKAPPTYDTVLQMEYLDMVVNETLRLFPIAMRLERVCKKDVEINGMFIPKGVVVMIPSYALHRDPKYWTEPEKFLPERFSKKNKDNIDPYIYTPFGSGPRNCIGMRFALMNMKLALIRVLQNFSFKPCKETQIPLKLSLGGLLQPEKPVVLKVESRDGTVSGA

SMILES | Functional Assay at 10 μM (% of control), Cpds (ERRγ; 10 μM, 24 hours, AD293) | Functional Assay, Cpds/Ref 5182 (ERRγ; [7]) | CYP inhibition (% of control) 3A4 (CYP3A4) | IC50 [1] [nM] | CYP inhibition (% of control) 1A2 (CYP1A2) | CYP inhibition (% of control) 2C9 (CYP2C9) | IC50 (GST-bound ERR alpha LBD) [nM] | CYP inhibition (% of control) 2D6 (CYP2D6) | CYP inhibition (% of control) 2C19 (CYP2C19) | IC50 [2, 8] [nM] | MS(Microsomal Stability) (%) human [3] [%] | MS(Microsomal Stability) (%) rat [4] [%] | MS(Microsomal Stability) (%) mouse [5] [%] | MS(Microsomal Stability) (%) dog [6] [%] | further results
CC(C)N1CCN(c2ccc(/C(=C(/CCCO)c3ccccc3)c3ccc(Br)cc3)cc2)CC1 [Compound 18e] | 2.6 % of control | 0.89 | 84 % of control | > 10000 | >100 % of control | 91.3 % of control | > 10000 | >100 % of control | 84.6 % of control |  |  |  |  |  | Permeability Pampa (in vitro): 1.11 10^−6 cm/s; AUCINF (in vivo; IV, 1 mg/kg): 0.06 μMh; AUCall (in vivo; IV, 1 mg/kg): 0.06 μMh; Vss (in vivo; IV, 1 mg/kg): 39.1 L/kg; t1/2 (in vivo; IV, 1 mg/kg): 0.8 h; AUCINF (in vivo; PO, 10 mg/kg): 0.09 μMh; AUCall (in vivo; PO, 10 mg/kg): 0.07 μMh; BA (in vivo; PO, 10 mg/kg): 11.5%; Tmax (in vivo; PO, 10 mg/kg): 2.8 h; Cmax (in vivo; PO, 10 mg/kg, read-out: Cmax): 10 nM
CN1CCC[C@H]1CCOc1ccc(/C(=C(/CCCO)c2ccccc2)c2ccc(O)cc2)cc1 [Compound 6j] | 2.44 % of control | 0.77 |  |  |  |  |  |  |  | 34 |  |  |  |  | 
CN1CCC[C@H]1COc1ccc(/C(=C(/CCCO)c2ccccc2)c2ccc(Br)cc2)cc1 [Compound 13b] |  |  |  |  |  |  |  |  |  | 64 | 61.2 | 66.2 |  |  | Functional Assay at 10 μM (% of control), Cpds (ERRγ): 1.5 % of control; Functional Assay, Cpds/Ref 5182 (ERRγ): 0.48; Papp at 5 h (in vitro): 0.93 ×10⁻⁶ cm/s
CC(C)N1CCC(c2ccc(/C(=C(/CCCO)c3ccccc3)c3ccc(O)cc3)cc2)CC1 [Compound 22k] | 0.77 % of control | 0.83 | 74.7 % of control | 1380 | >100 % of control | 97 % of control | > 10000 | 73.7 % of control | >100 % of control |  | 59.7 | 69.0 | 23.4 | 59.6 | 
CN1CCC[C@@H]1CCOc1ccc(/C(=C(/CCCO)c2ccccc2)c2ccc(O)cc2)cc1 [Compound 6k] | 2.5 % of control | 0.79 |  |  |  |  |  |  |  | 26 |  |  |  |  | Papp at 5 h (in vitro): 0.12 ×10⁻⁶ cm/s
OCCC/C(=C(\c1ccc(O)cc1)c1ccc(N2CCN(C3CCC3)CC2)cc1)c1ccccc1 [Compound 22q] |  |  | 81 % of control | 1660 | 99.9 % of control | 77.7 % of control | > 10000 | 77.6 % of control | 92.8 % of control | 53 | 63.7 | 67.6 | 17.6 | 43.8 | Permeability Pampa (in vitro): 0.77 10^−6 cm/s
CC(C)N1CCN(c2ccc(/C(=C(/CCCO)c3ccccc3)c3ccc(NS(C)(=O)=O)cc3)cc2)CC1 [Compound 27a, (E)-N-(4-(5-hydroxy-1-(4-(4-isopropylpiperazin-1-yl)phenyl)-2-phenylpent-1-en-1-yl)phenyl)methanesulfonamide] |  |  |  |  |  |  |  |  |  |  | 66.2 | 65.0 | 32.7 | 50.3 | Functional Assay at 10 μM (% of control), Cpds (ERRγ): 2.1 % of control; Functional Assay, Cpds/Ref 5182 (ERRγ): 0.77; Papp at 5 h (in vitro): 2.22 ×10⁻⁶ cm/s; IC50 [2]: 26 nM
OCCC/C(=C(\c1ccc(O)cc1)c1ccc(N2CCN(C3CCCCC3)CC2)cc1)c1ccccc1 [Compound 22p] |  |  | 90.6 % of control | 2120 | 88.1 % of control | 81.8 % of control | 9700 | 79.6 % of control | 61.5 % of control | 99 | 72.3 | 75.3 | 40.4 | 77.7 | Permeability Pampa (in vitro): 0.2 10^−6 cm/s
Cc1ccc(/C(=C(\CCCO)c2ccccc2)c2ccc(C3CCNCC3)cc2)cc1 [Compound 20k] |  |  | 83.6 % of control |  | 79.3 % of control | 87.6 % of control |  | 96.2 % of control | 78.9 % of control |  | 93.6 | 89.0 | 81.3 | 84.9 | 
OCCC/C(=C(/c1ccc(C2=CCN(C3CC3)CC2)cc1)c1cccc(O)c1)c1ccccc1 [Compound 22l] |  |  | 80.7 % of control |  | 96.2 % of control | 88.3 % of control |  | 99 % of control | 97 % of control |  | 71.8 | 53.4 | 25.8 | 67.9 | 
OCCC/C(=C(\c1ccc(O)cc1)c1ccc(OCCN2CCCC2)cc1)c1ccccc1 [Compound 6e] | 5.61 % of control |  |  | 408 |  |  | > 10000 |  |  | 67 |  |  |  |  | Functional Assay, Cpds/Ref 5182 (ERRγ): 1.82
